The source of these data is PubChem BioAssay (NCI).

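Step 1: Grow cells in 96-well plates. Step 2: Expose to compound for 48 hours at 5 concentrations. Step 3: Interpolate endpoints linearly; if unreached, use highest concentration. Definition used: TGI = concentration required for complete inhibition of growth.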

Test systems include SK-MEL-2 melanoma; OVCAR-8 ovarian; K-562 leukemia; SW-620 colon; SN12C renal; HCT-116 colon; MOLT-4 leukemia; IGROV1 ovarian; UACC-257 melanoma; SF-539 CNS.
What all share (assay): growth of human tumour cells (NCI), 48 h

Consider `CN1C(=O)C2(C=CC(O)CC2)c2ccccc21` (stereo unspecified), for which the TGI in the experiment on SK-MEL-2 melanoma, in the experiment on OVCAR-8 ovarian, in the experiment on K-562 leukemia, in the experiment with SW-620 colon, with SN12C renal and with HCT-116 colon was > 100 µM each time. The TGI with MOLT-4 leukemia, in the experiment with IGROV1 ovarian and with UACC-257 melanoma was > 100 µM in each case.
Consider `COc1cc(C2c3cc4c(cc3OC(NNS(=O)(=O)c3ccc(C)cc3)C2C)OCO4)cc(OC)c1O` (stereo unspecified), for which the TGI with OVCAR-8 ovarian is > 100 µM; in the experiment with SF-539 CNS, 31.4 µM; in the experiment on K-562 leukemia, 45.7 µM; with SW-620 colon, > 100 µM; with SN12C renal it was > 100 µM; with HCT-116 colon it was > 100 µM. Moreover, the TGI with MOLT-4 leukemia stood at 49.5 µM; with IGROV1 ovarian, 30.8 µM; in the experiment on UACC-257 melanoma, 38.4 µM.
Turning to `N#Cc1c(N2CCC(O)C2)c2ccccc2n2c1nc1ccccc12` (stereo unspecified), the TGI with SK-MEL-2 melanoma, with OVCAR-8 ovarian, in the experiment with SF-539 CNS, in the experiment with SW-620 colon, in the experiment on SN12C renal and with HCT-116 colon was > 100 µM each time. Moreover, the TGI in the experiment with MOLT-4 leukemia, in the experiment on IGROV1 ovarian and in the experiment with UACC-257 melanoma was > 100 µM throughout.
`CC(=O)O[C@H]1CC[C@@]2(C)C(=CC[C@@H]3[C@@H]2CC[C@]2(C)c4c(C)nn(-c5ccccc5)c4C[C@@H]32)C1`: the TGI with OVCAR-8 ovarian, with K-562 leukemia, in the experiment on SW-620 colon, in the experiment on SN12C renal, in the experiment with HCT-116 colon and with MOLT-4 leukemia was > 100 µM in each case. In addition, the TGI with IGROV1 ovarian and in the experiment with UACC-257 melanoma was > 100 µM in each case.
Turning to `N#CC(Cc1ccccc1)N(CCC1=CCCCC1)Cc1ccccc1` (stereo unspecified), the TGI in the experiment on SK-MEL-2 melanoma is > 100 µM; in the experiment on OVCAR-8 ovarian, > 100 µM; in the experiment on K-562 leukemia, > 100 µM; with SW-620 colon it was > 100 µM; in the experiment on HCT-116 colon, > 100 µM; in the experiment on MOLT-4 leukemia, 90.6 µM. Moreover, the TGI with IGROV1 ovarian and with UACC-257 melanoma was > 100 µM throughout.
In the case of `C=CCN(C(=O)OC(C)(C)C)[C@H](C)C(=O)N[C@@H](C)C(=O)OC`, the TGI in the experiment with SK-MEL-2 melanoma, in the experiment with OVCAR-8 ovarian, in the experiment with SF-539 CNS, in the experiment on K-562 leukemia, in the experiment with SW-620 colon and in the experiment on SN12C renal was > 100 µM in each case. Besides, the TGI in the experiment on HCT-116 colon, with MOLT-4 leukemia and with IGROV1 ovarian was > 100 µM in each case.
On to `CCOc1ccc(N/C(=C(/C(Cl)=C(/Cl)N2CCCCC2)[N+](=O)[O-])n2nnc3ccccc32)cc1`, for which the TGI was 33.3 µM in the experiment on SK-MEL-2 melanoma; 36.9 µM in the experiment on SF-539 CNS; > 100 µM in the experiment with K-562 leukemia; 41.9 µM with SN12C renal; 37.7 µM in the experiment with HCT-116 colon; > 100 µM in the experiment on MOLT-4 leukemia. In the experiment with UACC-257 melanoma, this molecule gave a TGI of 38.6 µM.
In the case of `COC1CN(C)C(=Nc2cccc3ccccc23)S1` (stereo unspecified), the TGI in the experiment with OVCAR-8 ovarian, in the experiment with SF-539 CNS, in the experiment on K-562 leukemia, with SW-620 colon, in the experiment with SN12C renal and in the experiment with HCT-116 colon was > 10 µM each time. Besides, the TGI in the experiment with MOLT-4 leukemia, with IGROV1 ovarian and with UACC-257 melanoma was > 10 µM each time.
Take `CCCCCCCCCCCCCCCCCCNC(=S)/N=C\C1=C(O)c2ccccc2C1=O`: the TGI came out at 32 µM with OVCAR-8 ovarian; 36.7 µM in the experiment with SF-539 CNS; 25.3 µM in the experiment on SW-620 colon; 31.1 µM with SN12C renal; 15.3 µM in the experiment with HCT-116 colon; 16.5 µM in the experiment on MOLT-4 leukemia. The figures for the TGI in the experiment with IGROV1 ovarian and with UACC-257 melanoma were 5.62 µM and 33.6 µM, respectively.
Take `S=C1CCSc2c(ccc3ccccc23)N1`: the TGI in the experiment with OVCAR-8 ovarian, with K-562 leukemia, in the experiment with SN12C renal, in the experiment on HCT-116 colon, in the experiment with MOLT-4 leukemia and with IGROV1 ovarian was > 100 µM throughout. In addition, the TGI in the experiment with UACC-257 melanoma is > 100 µM.
As to `Cn1c(=O)c2c(nc3n2CCCC(=O)N3CC(O)CCl)n(C)c1=O` (stereo unspecified), the TGI in the experiment with SK-MEL-2 melanoma, in the experiment with OVCAR-8 ovarian, with K-562 leukemia, in the experiment with SW-620 colon, in the experiment on SN12C renal and with HCT-116 colon was > 100 µM in each case. Further, the TGI in the experiment on MOLT-4 leukemia, in the experiment on IGROV1 ovarian and in the experiment with UACC-257 melanoma was > 100 µM each time.
Consider `Cc1c(N2CCN(C)CC2)nc2ccc(Cl)cc2c1-c1ccccc1`, for which the TGI was determined as 36.5 µM with SK-MEL-2 melanoma; 31.8 µM with OVCAR-8 ovarian; 33.9 µM with SF-539 CNS; 35.7 µM in the experiment on K-562 leukemia; 34.6 µM in the experiment on SW-620 colon; 29 µM with SN12C renal. Besides, the TGI with HCT-116 colon was 40 µM; in the experiment with MOLT-4 leukemia it was > 10 µM; in the experiment with UACC-257 melanoma it was 33 µM.
`COC(O)C(=O)c1ccc2c(c1)CC1(C2)Cc2cc3c(cc2C1=O)CCC3` (stereo unspecified): the TGI in the experiment on SK-MEL-2 melanoma stood at 47.1 µM; in the experiment on SF-539 CNS, 35.4 µM; in the experiment on K-562 leukemia, 21.8 µM; with SW-620 colon, 30.3 µM; with SN12C renal, 29.6 µM; in the experiment on HCT-116 colon, 34.8 µM. Further, the TGI was 64 µM with MOLT-4 leukemia, 32.8 µM in the experiment on IGROV1 ovarian and 39.7 µM with UACC-257 melanoma.
For the molecule `CCOC(=O)C1=CCOc2cc(N(C)C)ccc21`, the TGI with SK-MEL-2 melanoma, in the experiment on OVCAR-8 ovarian, in the experiment with SF-539 CNS, in the experiment on K-562 leukemia, in the experiment on SW-620 colon and in the experiment with SN12C renal was > 100 µM in each case. In addition, the TGI in the experiment on HCT-116 colon, in the experiment on IGROV1 ovarian and in the experiment on UACC-257 melanoma was > 100 µM throughout.
As to `CC(=O)Nc1ccc2c3c(cc(O)c2c1)N(C(=O)CCCCCCC(=O)N1CC(CCl)c2c1cc(O)c1cc(NC(C)=O)ccc21)CC3CCl` (stereo unspecified), the TGI is < 0.01 µM with SK-MEL-2 melanoma; 0.346 µM with OVCAR-8 ovarian; 0.0413 µM with SF-539 CNS; > 100 µM with K-562 leukemia; > 100 µM in the experiment with SW-620 colon; 0.237 µM with SN12C renal. Besides, in the experiment with IGROV1 ovarian, the TGI amounted to 0.499 µM.
